Test system: HIV with mutations in the HIV protease sequence
Assay: Phenotypic fold resistance to protease inhibitors, protease mutations 84A/84L/84C/54M/54L/54V in a background (Examples 8-13)
Format: cell-based, HIV-1
Procedure, shortened: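 Recombinant-virus phenotyping: patient-derived PR/RT sequences amplified by PCR and recombined in CD4+ T cells into an HXB2 proviral clone deleted for those sequences. Chimeric viruses grown across drug concentrations; IC50 determined, and fold-resistance expressed as IC50 ratio versus wild-type susceptible laboratory HIV-1 tested in parallel.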

Compound: CC(C)(C)NC(=O)[C@@H]1C[C@@H]2CCCC[C@@H]2CN1C[C@@H](O)[C@H](Cc1ccccc1)NC(=O)[C@H](CC(N)=O)NC(=O)c1ccc2ccccc2n1 [Saquinavir, saquinavir]
- mean fold increase in resistance (Table 9 #1, protease genotype WT): 0.9 fold
- mean fold increase in resistance (Table 9 #2, protease genotype 10I): 0.9 fold
- mean fold increase in resistance (Table 9 #3, protease genotype 46I): 0.6 fold
- mean fold increase in resistance (Table 9 #4, protease genotype 46I + 84V): 2.5 fold
- mean fold increase in resistance (Table 9 #5, protease genotype 46I + 84A): 38.1 fold
- mean fold increase in resistance (Table 9 #6, protease genotype 10I + 46I): 0.5 fold
- mean fold increase in resistance (Table 9 #7, protease genotype 10I + 46I + 84V): 4.1 fold
- mean fold increase in resistance (Table 9 #8, protease genotype 10I + 46I + 84A): 48.2 fold
- mean fold increase in resistance (Table 9 #9, protease genotype 10L/I + 46I + 84A): 46.4 fold
- mean fold increase in resistance (Table 9 #10, protease genotype 10I + 46I + 84A): 42.8 fold
- mean fold increase in resistance (Table 9 #11, protease genotype 46I + 71V): 0.6 fold
- mean fold increase in resistance (Table 9 #12, protease genotype 46I + 71V + 84V/I): 0.6 fold
- mean fold increase in resistance (Table 9 #13, protease genotype 46I + 71V + 84A): 47.7 fold
- mean fold increase in resistance (Table 9 #14, protease genotype 10F + 46I + 71V): 1.9 fold
- mean fold increase in resistance (Table 9 #15, protease genotype 10I + 46I + 71V + 84V): 15.9 fold
- mean fold increase in resistance (Table 9 #16, protease genotype 10I + 46I + 71V + 84A): 48.2 fold
- mean fold increase in resistance (Table 9 #17, protease genotype 10V + 46I + 71T + 84A): 48.2 fold
- mean fold increase in resistance (Table 9 #18, protease genotype 10I + 46I + 71V + 77I): 1.3 fold
- mean fold increase in resistance (Table 9 #19, protease genotype 10I + 46I + 71V + 77I + 84V): 2.5 fold
- mean fold increase in resistance (Table 9 #20, protease genotype 10I + 46I + 71V + 77I + 84A): 47.1 fold
- mean fold increase in resistance (Table 9 #21, protease genotype 10I + 33L/I + 46I + 71V + 77V/I + 84A): 44.7 fold
- mean fold increase in resistance (Table 10 #1, protease genotype 10I + 36I + 71V): 1.6 fold
- mean fold increase in resistance (Table 10 #2, protease genotype 10I + 36I + 71I + 84V): 0.8 fold
- mean fold increase in resistance (Table 10 #3, protease genotype 10I + 36I + 71I + 84L): 10.2 fold
- mean fold increase in resistance (Table 11 #1, protease genotype WT): 0.9 fold
- mean fold increase in resistance (Table 11 #2, protease genotype 84V): 0.7 fold
- mean fold increase in resistance (Table 11 #3, protease genotype 84C): 26.4 fold
- mean fold increase in resistance (Table 11 #4, protease genotype 10I): 0.9 fold
- mean fold increase in resistance (Table 11 #5, protease genotype 10I + 84V): 2.7 fold
- mean fold increase in resistance (Table 11 #6, protease genotype 10I + 84C): 37.1 fold
- mean fold increase in resistance (Table 11 #7, protease genotype 77I): 0.3 fold
- mean fold increase in resistance (Table 11 #8, protease genotype 77I + 84V): 3.5 fold
- mean fold increase in resistance (Table 11 #9, protease genotype 77I + 84C): 18.1 fold
- mean fold increase in resistance (Table 11 #10, protease genotype 77I + 84C): 18.5 fold
- mean fold increase in resistance (Table 11 #11, protease genotype 10I + 24I + 36I + 46I + 71V + 84C): 46.4 fold
- Fold change in IC50 (Table 12, V19263, genotype 77I): 0.3 fold
- Fold change in IC50 (Table 12, V20160, genotype WT): 0.9 fold
- Fold change in IC50 (Table 12, V021667, genotype 10I): 0.9 fold
- Fold change in IC50 (Table 12, V030496, genotype 10I + 77I): 0.3 fold
- Fold change in IC50 (Table 12, V048869, genotype 10I + 54M + 77I + 90M): 5.1 fold
- Fold change in IC50 (Table 12, V048872, genotype 33F + 54M + 77I + 90M): 5.2 fold
- Fold change in IC50 (Table 12, V048873, genotype 33F + 54M + 77I + 90M): 3.1 fold
- Fold change in IC50 (Table 12, V048877, genotype 10I + 33F + 77I + 90M): 1.5 fold
- Fold change in IC50 (Table 12, V048878, genotype 10I + 33F + 54M + 71V + 77I + 90M): 4.0 fold
- Fold change in IC50 (Table 12, V048879, genotype 10I + 33F + 54M + 71V + 77I + 90M): 51.8 fold
- Fold change in IC50 (Table 12, V048880, genotype 10I + 33F + 77I + 90M): 2.7 fold
- Fold change in IC50 (Table 12, V052940, genotype 71V): 0.8 fold
- Fold change in IC50 (Table 12, V052942, genotype 10I + 71V): 0.8 fold
- Fold change in IC50 (Table 12, V052943, genotype 10I + 90M): 1.1 fold
- Fold change in IC50 (Table 12, V052944, genotype 10I + 90M): 0.7 fold
- Fold change in IC50 (Table 12, V052945, genotype 77I + 90M): 1.4 fold
- Fold change in IC50 (Table 12, V052946, genotype 71V + 90M): 1.4 fold
- Fold change in IC50 (Table 12, V052947, genotype 10I + 77I + 90M): 3.9 fold
- Fold change in IC50 (Table 12, V052948, genotype 10I + 71V + 90M): 4.8 fold
- Fold change in IC50 (Table 12, V052949, genotype 10I + 71V + 77I + 90M): 2.1 fold
- Fold change in IC50 (Table 12, V052950, genotype 33F): 1.2 fold
- Fold change in IC50 (Table 12, V052951, genotype 33F + 77I): 0.4 fold
- Fold change in IC50 (Table 12, V052953, genotype 10I + 33F + 77I): 1.2 fold
- Fold change in IC50 (Table 12, V052954, genotype 33F + 77I + 90M): 1.7 fold
- Fold change in IC50 (Table 12, V052955, genotype 33F + 71V + 90M): 20.4 fold
- Fold change in IC50 (Table 12, V052977, genotype 10I + 33F + 54M): 0.5 fold
- Fold change in IC50 (Table 12, V052978, genotype 10I + 33F + 54M + 71V + 90M): 9.9 fold
- Fold change in IC50 (Table 12, V052979, genotype 10I + 54M): 1.4 fold
- Fold change in IC50 (Table 12, V052980, genotype 10I + 54M + 90M): 1.4 fold
- Fold change in IC50 (Table 12, V052981, genotype 10I + 54M + 71V + 90M): 5.4 fold
- Fold change in IC50 (Table 12, V052982, genotype 10I + 54M + 71V + 77I + 90M): 4.2 fold
- Fold change in IC50 (Table 12, V053832, genotype 10I + 33F): 0.5 fold

Reference: US8574831B2, “Mutational profiles in HIV-1 reverse transcriptase correlated with phenotypic drug resistance” (Virco N.V., priority 2000, dated 2013)
